# Results published in paper PMC4287973, “Tumor cell-specific inhibition of MYC function using small molecule inhibitors of the HUWE1 ubiquitin ligase” (EMBO Molecular Medicine, 2014).
# Where a SMILES comes first, the peptide text is derived from it. The star is where a group is joined. Cbz = O=C(OCc1ccccc1)*
# System: MIZ1
# Experiment: HUWE1-mediated decrease in MIZ1 levels in transfected HeLa cells
# Format: cell-based
# Details: MG132 10 µM for 6 hrs
# Description: Neither depletion nor chemical inhibition of HUWE1 affected the expression of any member of the MXD family of repressor proteins that antagonize transactivation by MYC or nuclear localization of MYC (Supplementary Figs S9A and S10). […] In contrast, ectopic expression of HUWE1 had only moderate effects on steady-state levels of MYC, consistent with the results obtained in response to depletion of HUWE1 (Fig6A). As a result, ectopic expression of HUWE1 increased the relative amount of MYC that is not bound to MIZ1 (Fig6B). […] Consistently, depletion or chemical inhibition of HUWE1 increased steady-state levels of MIZ1 in colon carcinoma cells (Fig6D and E). Similarly, depletion or inhibition of HUWE1 increased levels of MIZ1 in mouse keratinocytes (Supplementary Fig S11B and C), in which HUWE1 is known to degrade MIZ1 (Inoue et al, [2013]).
# Peter et al. HUWE1 inhibition
# B. Immunofluorescence staining of MYC upon HUWE1 inhibition. Ls174T cells were treated […]
# Supplementary Figure S11: Characterization of HUWE1 effects on MIZ1 stability.
# A, Effect of proteasome inhibition on HUWE1-induced downregulation of MIZ1. HeLa cells were transfected with plasmids encoding MIZ1 and HA-HUWE1. Cells were treated with BI8622 (20 µM) for 24 hrs, DMSO served as solvent control. MG132 was used at 10 µM for 6 hrs. Lysates were analyzed for expression of HUWE1 and MIZ1, Vinculin was used as […]
structure (smiles),measurement,value
CC(C)C[C@@H](C=O)NC(=O)[C@H](CC(C)C)NC(=O)[C@H](CC(C)C)NC(=O)OCc1ccccc1 [MG132] (Cbz-Leu-Leu-Leu-aldehyde),HUWE1-mediated decrease in MIZ1 levels,blocked
